Assay results published in patent US9029332B2, “Cross-linked peptides and proteins, methods of making same, and uses thereof” (The Research Foundation for The State University of New York, priority 2010, dated 2015).
Numbered stars: 1 amine (or outer) side, 2 acyl side, 3 side chain; on linkers, the order of the positions; unused ones are H or OH. Bridge positions count the residues as written; N and C are the ends. Square brackets hold non-standard residues; d marks the D form. Peptide text beside a SMILES is read from it. CH2(3,3'-bipyridine-6,6')CH2 = c1cc(C[*:1])ncc1-c1ccc(C[*:2])nc1

How the values were obtained:
GST-Bcl-xL = GST-Bcl-xL (Homo sapiens, UniProt Q07817); assay: FP binding affinity of fluorescein-labeled peptides, Bcl-xL; details: FP assay, fluorescein-labeled peptide; read-out: GST-Bcl-xL Kd
GST-Mcl-1 [1] = target: T1, GST-Mcl-1 (Homo sapiens, UniProt Q07820); assay: FP binding affinity of fluorescein-labeled peptides, Mcl-1; details: FP assay, fluorescein-labeled peptide
HeLa cells [2] = assay: Confocal microscopy of fixed HeLa cells, cellular fluorescence; format: cell-based; details: 10 μM fluorescein-conjugated peptide, 2 hours
Experimental: (§1) FIG. 8. (a) Confocal images of fixed HeLa cells after treatment with 10 μM of fluorescein-conjugated peptides for 2 hours. Scale bar=50 μm. (b) Cell viability assay using the CellTiter-Glo reagent.
HeLa Cells were seeded into 35 mm glass bottom microwell dishes (MatTek, Ashland, Mass.) at a density of 3×105 in DMEM medium supplemented with 10% fetal bovine serum, and the cells were allowed to grow in a 37° C. 5% CO2 incubator for 48 hours. After removing medium, the cells were washed twice with PBS and then incubated in serum-free DMEM medium for 30 minutes. Appropriate amounts of peptides (1 mM in DMSO) were then added to obtain a final concentration of 10 μM and cells were incubated at 37° C. for 2 hours. After PBS wash, cells were treated with 4% formaldehyde in PBS for 20 minutes at room temperature. The fixation medium was removed and the cells were washed with PBS (3×) before placing cells into the low florescent mounting medium for fluorescent imaging acquisition.

HeLa cells [3] = assay: FACS analysis of cell permeability of fluorescein-conjugated peptides; format: cell-based; details: 10 μM fluorescein-conjugated peptide, 2 h
Experimental: FACS Analysis. HeLa Cells were cultured in DMEM medium supplemented with 10% fetal bovine serum in 6-well plate in a 37° C., 5% CO2 incubator to reach confluency of around 70%. The cells were then washed twice with PBS before switching to serum-free DMEM medium. After standing in the incubator for 30 minutes, appropriate amounts of peptides (1 mM in DMSO) were added to the culture plate to obtain a final peptide concentration of 10 μM. Cells were incubated at 37° C. for additional 2 hrs. Then the medium was removed and the cells were washed with PBS (3×) followed by treatment with trypsin to detach the cells. After a brief low-speed centrifugation, the HeLa cells were collected and re-suspended in PBS for the FACS analysis.

HeLa cells [4] = assay: Cell viability assay (CellTiter-Glo, ATP) and DIC imaging, cytotoxicity; format: cell-based; details: 10 μM, 2 hours; DIC channel and ATP assay
Experimental: as §1
Cell Viability Assay. HeLa cells were seeded into an opaque 96-well plate at a density of 1×10^4 per well in 100 μL DMEM medium supplemented with 10% FBS and the cells were allowed to grow in a 37° C. 5% CO2 incubator for 48 hrs to reach confluency of around 80%. Prior to the compound treatment, the medium was replaced with serum-free medium and the cells were incubated for 30 minutes. Appropriate amounts of peptides (1 mM in DMSO) were then added to obtain a final concentration of 10 μM and the cells were incubated at 37° C. for 2 hours. Afterwards, the plate was allowed to stand at room temperature for 30 minutes before 100 μL of Cell-Titer Glow reagent (Promega) was added. The plate was incubated at room temperature for 10 minutes. The luminescence signals were recorded with an FLX 800 luminescence plate reader (BioTek). The plotted data represented the average of the readings from 4 separate wells.

[5] = Circular dichroism, percent helicity; format: physicochemical; details: compared to the linear NoxaBH3 peptide, 50 μM in 20% ACN/H2O
Experimental: FIG. 12. […] The peptides were dissolved in 20% ACN/H2O for a final concentration of 50 μM.
Circular Dichroism Study. […] The spectra were recorded in the wavelength range of 190-250 nm and averaged over 3 scans with a resolution of 0.5 nm, a bandwidth of 1.0 nm and a response time of 4 s. The sensitivity and the speed of the spectrometer were set to 100 mdeg and 50 nm/min, respectively. All peptides were dissolved in 20% acetonitrile/H2O to reach final concentration of 50 μM.

GST-Mcl-1 [6] = target: T1, GST-Mcl-1; assay: Competitive fluorescence polarization assay; format: binding
Experimental: Competitive Florescence Polarization Assay. The binding affinity of the Noxa peptides toward GST-Mcl-1 was determined in a competitive fluorescence polarization assay with the fluorescein-labeled Bak or Bim. Briefly, fluorescein-labeled Bak was incubated with GST-Mcl-1 in a binding buffer (PBS, 0.005% Tween-20, pH7.4) at room temperature in a 96-well microtiter plate. […] The reading was repeated at various time points to ensure that the competition has reached equilibrium.

Mcl-1 = Mcl-1 (Homo sapiens, UniProt Q07820); assay: ELISA of cross-linked Noxa peptides; format: binding
HeLa cells [7] = assay: Cellular uptake of fluorescein-labeled Noxa peptides by FACS and fluorescence microscopy; format: cell-based; details: 10 μM fluorescein-labeled peptide, 2 hours
Experimental: FIG. 13. […] (a) Flow cytometry analysis of cell permeability of the FITC-labeled linear or stapled peptide. HeLa cells were treated with 10 μM of fluorescein-labeled peptides in serum-free DMEM medium for 2 hours followed by fixation with formaldehyde. (b) Fluorescent micrographs of HeLa cells treated with 10 μM of fluorescein-labeled (Fl) linear or cross-linked NoxaBH3 peptide. Scale bar=50 μm.
To investigate cellular uptake of the cross-linked peptides, the N-terminal fluorescein-labeled cross-linked NoxaBH3 peptides (5a, 6a, 7a, 8a) and linear peptide Fl-Noxa-(75-93)-C75A were prepared and their uptakes into HeLa cells were examined by both FACS and fluorescence microscopy. […] To examine whether the cross-linked peptides induce apoptosis, Mcl-1-overexpressing Raji cells and K562 cells co-transfected with Mcl-1/BimEL were treated with the cross-linked peptides and the cell viabilities were measured by CellTiter-Glo reagent. […] For the remaining peptides, the following SEQ ID NOs apply: peptide 9a and 10A are SEQ ID NO:17; 11a and 12 a are SEQ ID NO:18; 5c, 5d, 5e, Fluo-5a, Fluo-6a, and Fluo-6b are SEQ ID NO:16; Fluo-NoxaB^75-94-C75A is SEQ ID NO:15; and Fluo-71 is SEQ ID NO:17.

T1 sequence (Q07820 whole entry): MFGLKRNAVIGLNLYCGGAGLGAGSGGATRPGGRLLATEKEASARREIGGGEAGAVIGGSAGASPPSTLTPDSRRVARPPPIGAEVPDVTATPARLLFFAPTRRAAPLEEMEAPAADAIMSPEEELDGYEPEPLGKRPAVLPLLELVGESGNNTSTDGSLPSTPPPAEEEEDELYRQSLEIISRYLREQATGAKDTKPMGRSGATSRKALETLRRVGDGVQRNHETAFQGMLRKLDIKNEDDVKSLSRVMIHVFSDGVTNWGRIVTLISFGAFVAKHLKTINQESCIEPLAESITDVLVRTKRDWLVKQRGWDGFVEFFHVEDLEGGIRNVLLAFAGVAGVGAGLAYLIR
Sequence of GST-Bcl-xL (Q07817 whole entry): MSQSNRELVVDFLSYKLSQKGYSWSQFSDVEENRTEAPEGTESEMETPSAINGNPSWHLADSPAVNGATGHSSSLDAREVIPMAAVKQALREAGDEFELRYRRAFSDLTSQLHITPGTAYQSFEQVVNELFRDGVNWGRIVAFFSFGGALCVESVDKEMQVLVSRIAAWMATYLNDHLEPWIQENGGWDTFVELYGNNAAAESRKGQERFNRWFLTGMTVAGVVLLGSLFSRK
Sequence of Mcl-1 (Q07820 whole entry, species assumed): as the sequence (Q07820 whole entry) above

| Kd (GST-Bcl-xL) | Kd (GST-Mcl-1 [1]) | Compound | cellular fluorescence, FITC channel (HeLa cells [2]) | cytotoxicity (HeLa cells [4]) | enhancement in percent helicity [5] | cellular uptake (HeLa cells [7]) | further results |
| --- | --- | --- | --- | --- | --- | --- | --- |
| > 2000 nM | 0.8 ± 0.1 nM | CC[C@H](C)[C@@H]1NC(=O)[C@H](CCCNC(=N)N)NC(=O)[C@H](CCCNC(=N)N)NC(=O)[C@H](CC(C)C)NC(=O)[C@@H](NC(=O)[C@H](C)NC(=O)[C@H](C)NC(=O)CCCCCNC(=S)Nc2ccc3c(c2)C(=O)OC32c3ccc(O)cc3Oc3cc(O)ccc32)CSCc2ccc(cc2)-c2ccc(cc2)CSC[C@@H](C(=O)N[C@H](C(=O)N[C@@H](CC(N)=O)C(=O)N[C@@H](CC(C)C)C(=O)N[C@@H](CCCNC(=N)N)C(=O)N[C@@H](CCC(N)=O)C(=O)N[C@@H](CCCCN)C(=O)N[C@@H](CC(C)C)C(=O)N[C@@H](CC(C)C)C(=O)N[C@@H](CC(N)=O)C(N)=O)C(C)C)NC(=O)[C@H](CC(=O)O)NC(=O)CNC1=O [Fl-5a] | – | – | – | – | – |
| > 2000 nM | 0.7 ± 0.1 nM | CC[C@H](C)[C@@H]1NC(=O)[C@H](CCCNC(=N)N)NC(=O)[C@H](CCCNC(=N)N)NC(=O)[C@H](CC(C)C)NC(=O)[C@H](NC(=O)[C@H](C)NC(=O)[C@H](C)NC(=O)CCCCCNC(=S)Nc2ccc3c(c2)C(=O)OC32c3ccc(O)cc3Oc3cc(O)ccc32)CSCc2ccc(cc2)-c2ccc(cc2)CSC[C@@H](C(=O)N[C@H](C(=O)N[C@@H](CC(N)=O)C(=O)N[C@@H](CC(C)C)C(=O)N[C@@H](CCCNC(=N)N)C(=O)N[C@@H](CCC(N)=O)C(=O)N[C@@H](CCCCN)C(=O)N[C@@H](CC(C)C)C(=O)N[C@@H](CC(C)C)C(=O)N[C@@H](CC(N)=O)C(N)=O)C(C)C)NC(=O)[C@H](CC(=O)O)NC(=O)CNC1=O [Fl-6a] | – | – | – | – | – |

Continued, molecule first:

| Compound | Kd (GST-Bcl-xL) | Kd (GST-Mcl-1 [1]) | cellular fluorescence, FITC channel (HeLa cells [2]) | cytotoxicity (HeLa cells [4]) | enhancement in percent helicity [5] | cellular uptake (HeLa cells [7]) | further results |
| --- | --- | --- | --- | --- | --- | --- | --- |
| CC(=O)N[C@@H](CC(C)C)C(=O)N[C@H](C(=O)N[C@@H](Cc1ccccc1)C(=O)N[C@H]1CSCc2ccc(cn2)-c2ccc(nc2)CSC[C@@H](C(=O)N[C@@H](CO)C(N)=O)NC(=O)[C@H](CC(C)C)NC(=O)[C@H](CCCNC(=N)N)NC(=O)[C@H](C)NC(=O)[C@H](Cc2c[nH]c3ccccc23)NC(=O)[C@H](Cc2ccc(O)cc2)NC(=O)[C@H](CCCNC(=N)N)NC1=O)[C@@H](C)O [Peptide 2b, LTFC″RYWARLC″S] (Ac-LTFCRYWARLCS-NH2; linker 4-11 via CH2(3,3'-bipyridine-6,6')CH2) | – | – | strongest cellular fluorescence | apparent cytotoxicity | – | – | increase in mean fluorescence / permeability by arginine substitution (HeLa cells [3]; compared to charge-neutral counterpart): 2 fold; increase in mean fluorescence by Bpy cross-linking (HeLa cells [3]; over linear counterpart): ~5 fold |
| CC(=O)N[C@@H](CC(C)C)C(=O)N[C@H](C(=O)N[C@@H](Cc1ccccc1)C(=O)N[C@@H]1CSCc2ccc(cn2)-c2ccc(nc2)CSC[C@@H](C(=O)N[C@@H](CO)C(N)=O)NC(=O)[C@H](CC(C)C)NC(=O)[C@H](CCCNC(=N)N)NC(=O)[C@H](C)NC(=O)[C@H](Cc2c[nH]c3ccccc23)NC(=O)[C@H](Cc2ccc(O)cc2)NC(=O)[C@H](CCCNC(=N)N)NC1=O)[C@@H](C)O [Peptide 4b, LTFc″RYWARLC″S] (Ac-LTF[dC]RYWARLCS-NH2; linker 4-11 via CH2(3,3'-bipyridine-6,6')CH2; C-terminus assumed) | – | – | strongest cellular fluorescence | apparent cytotoxicity | – | – | – |
| CC[C@H](C)[C@@H]1NC(=O)[C@H](CCCNC(=N)N)NC(=O)[C@H](CCCNC(=N)N)NC(=O)[C@H](CC(C)C)NC(=O)[C@H](NC(=O)[C@H](C)NC(=O)[C@H](C)NC(C)=O)CSCc2ccc(cc2)-c2ccc(cc2)CSC[C@@H](C(=O)N[C@H](C(=O)N[C@@H](CC(N)=O)C(=O)N[C@@H](CC(C)C)C(=O)N[C@@H](CCCNC(=N)N)C(=O)N[C@@H](CCC(N)=O)C(=O)N[C@@H](CCCCN)C(=O)N[C@@H](CC(C)C)C(=O)N[C@@H](CC(C)C)C(=O)N[C@@H](CC(N)=O)C(N)=O)C(C)C)NC(=O)[C@H](CC(=O)O)NC(=O)CNC1=O [Peptide 6a] | – | – | – | – | roughly 2 fold | robust uptakes | IC50 (GST-Mcl-1 [6]; Noxa peptides, three repeats ± SD, read-out: FP, IC50): 73 ± 18 nM; increase in activity in FPA (GST-Mcl-1 [6]; compared to the parent linear peptide): 37 fold; IC50 (Mcl-1): 260 nM |
| CC[C@H](C)[C@@H]1NC(=O)[C@H](CCCNC(=N)N)NC(=O)[C@H](CCCNC(=N)N)NC(=O)[C@H](CC(C)C)NC(=O)[C@@](C)(NC(=O)[C@H](C)NC(=O)[C@H](C)NC(C)=O)CSCc2ccc(cc2)-c2ccc(cc2)CSC[C@@](C)(C(=O)N[C@H](C(=O)N[C@@H](CC(N)=O)C(=O)N[C@@H](CC(C)C)C(=O)N[C@@H](CCCNC(=N)N)C(=O)N[C@@H](CCC(N)=O)C(=O)N[C@@H](CCCCN)C(=O)N[C@@H](CC(C)C)C(=O)N[C@@H](CC(C)C)C(=O)N[C@@H](CC(N)=O)C(N)=O)C(C)C)NC(=O)[C@H](CC(=O)O)NC(=O)CNC1=O [Peptide 8a] | – | – | – | – | ~3 fold | robust uptakes | – |
